Reference: the supplement of paper PMC10307832

Tests used:
Test in all cases: relative viability (nuclei count vs DMSO), 5 days (fraction); higher = more cells survive
AGI-6780 + OSI-027 = compound: O=C(Nc1cccc(C(F)(F)F)c1)Nc1cc(S(=O)(=O)NC2CC2)ccc1-c1ccsc1 [AGI-6780] + COc1cccc2cc(-c3nc([C@H]4CC[C@H](C(=O)O)CC4)n4ncnc(N)c34)[nH]c12 [OSI-027] (partner 0.5 µM)
Outline: (§1)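 Dosing by pin tool came one day after lung cancer cell lines were seeded in 1536-well plates, using either one drug or a fixed anchor-drug dose plus five library-drug doses (not always all listed) in √10 steps. After 5 days, nuclei were counted on 4× images. Relative viability is treated-well nuclei count divided by vehicle-well nuclei count, and values are medians of duplicate plates.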

AGI-6780 + Luminespib = compound: O=C(Nc1cccc(C(F)(F)F)c1)Nc1cc(S(=O)(=O)NC2CC2)ccc1-c1ccsc1 [AGI-6780] + CCNC(=O)c1noc(-c2cc(C(C)C)c(O)cc2O)c1-c1ccc(CN2CCOCC2)cc1 [Luminespib] (partner 0.01 µM)
Outline: as §1

AGI-6780 + Linsitinib = compound: O=C(Nc1cccc(C(F)(F)F)c1)Nc1cc(S(=O)(=O)NC2CC2)ccc1-c1ccsc1 [AGI-6780] + C[C@]1(O)C[C@@H](c2nc(-c3ccc4ccc(-c5ccccc5)nc4c3)c3c(N)nccn32)C1 [Linsitinib] (partner 1 µM)
Outline: as §1

AGI-6780 + Lapatinib = compound: O=C(Nc1cccc(C(F)(F)F)c1)Nc1cc(S(=O)(=O)NC2CC2)ccc1-c1ccsc1 [AGI-6780] + CS(=O)(=O)CCNCc1ccc(-c2ccc3ncnc(Nc4ccc(OCc5cccc(F)c5)c(Cl)c4)c3c2)o1 [Lapatinib] (partner 2 µM)
Outline: as §1

Cell Line | relative viability (AGI-6780 + OSI-027; first compound 0.08 µM) | relative viability (AGI-6780 + OSI-027; first compound 0.253 µM) | relative viability (AGI-6780 + OSI-027; first compound 0.8 µM) | relative viability (AGI-6780 + OSI-027; first compound 2.53 µM) | relative viability (AGI-6780 + OSI-027; first compound 8 µM) | relative viability (AGI-6780 + Luminespib; first compound 0.08 µM) | relative viability (AGI-6780 + Luminespib; first compound 0.253 µM) | relative viability (AGI-6780 + Luminespib; first compound 0.8 µM) | relative viability (AGI-6780 + Luminespib; first compound 2.53 µM) | relative viability (AGI-6780 + Luminespib; first compound 8 µM) | relative viability (AGI-6780 + Linsitinib; first compound 0.08 µM) | relative viability (AGI-6780 + Linsitinib; first compound 0.253 µM) | relative viability (AGI-6780 + Linsitinib; first compound 0.8 µM) | relative viability (AGI-6780 + Linsitinib; first compound 8 µM) | relative viability (AGI-6780 + Lapatinib; first compound 0.08 µM) | relative viability (AGI-6780 + Lapatinib; first compound 0.253 µM) | relative viability (AGI-6780 + Lapatinib; first compound 0.8 µM) | relative viability (AGI-6780 + Lapatinib; first compound 8 µM) | relative viability (AGI-6780 + Linsitinib; first compound 2.53 µM) | relative viability (AGI-6780 + Lapatinib; first compound 2.53 µM)
NCI-H1734 | 0.588 | 0.665 | 0.621 | 0.442 | 0.573 | 0.216 | 0.233 | 0.201 | 0.19 | 0.177 | 1.01 | 0.975 | 0.728 | 0.945 | 0.961 | 1.09 | 1.07 | 1.07 |  | 
NCI-H1792 |  | 0.71 | 0.704 | 0.663 | 0.643 | 0.52 | 0.354 | 0.371 | 0.443 | 0.366 | 0.53 | 0.519 | 0.519 | 0.408 | 0.805 | 0.893 | 1.14 | 0.914 | 0.544 | 0.883
NCI-H2126 | 0.711 | 0.88 | 0.742 | 0.618 | 0.815 | 0.984 | 0.843 | 0.95 | 0.9 | 0.856 | 0.761 | 0.802 | 0.709 | 0.712 | 0.782 | 0.798 | 0.73 | 0.757 | 0.585 | 0.586
NCI-H23 | 0.705 | 0.623 | 0.747 | 0.346 | 0.672 |  | 0.202 | 0.231 |  | 0.205 | 0.622 | 0.582 | 0.693 | 0.672 | 1.17 | 1.26 | 1.45 | 1.15 | 0.39 | 0.931
PC-14 | 0.833 | 0.822 | 0.814 | 0.678 | 0.922 | 0.228 | 0.195 | 0.171 | 0.118 | 0.121 | 0.983 | 0.925 | 0.832 | 0.937 | 0.312 | 0.348 | 0.312 | 0.291 | 0.903 | 0.314
ChaGo-K-1 | 0.521 | 0.613 | 0.577 | 0.42 | 0.547 | 0.573 | 0.467 | 0.64 | 0.497 | 0.76 |  |  |  |  |  |  |  |  |  | 
NCI-H2170 | 0.694 | 0.762 | 0.768 | 0.596 | 0.733 | 0.603 | 0.729 | 0.682 | 0.403 | 0.719 |  |  |  |  | 0.291 | 0.281 | 0.272 | 0.257 |  | 
NCI-H1648 | 0.26 | 0.292 | 0.258 | 0.277 | 0.242 |  |  |  |  |  |  |  |  |  |  |  |  |  |  | 
LCLC-103H | 0.554 | 0.518 | 0.45 | 0.38 | 0.491 | 1.07 | 0.896 | 0.986 | 0.971 | 0.963 | 1.18 | 1.15 | 0.963 | 1.06 |  |  |  |  | 1.06 | 
Calu-6 |  |  |  |  |  |  |  |  |  |  | 0.984 | 1.02 | 0.897 | 0.955 | 0.989 | 1.01 | 1.22 | 0.974 | 0.852 | 1.14
SW 900 | 0.649 | 0.684 | 0.811 | 0.415 | 0.741 | 0.167 | 0.17 | 0.163 | 0.185 | 0.176 |  |  |  |  |  |  |  |  |  | 
NCI-H1299 |  |  |  |  |  |  |  |  |  |  | 1.01 | 0.987 | 0.941 | 1.04 | 1.01 | 0.978 | 0.925 | 0.968 | 1.05 | 0.929
NCI-H1650 | 0.641 | 0.597 | 0.856 | 0.552 | 0.638 | 0.187 | 0.203 | 0.219 | 0.228 | 0.191 |  |  |  |  | 0.739 | 0.777 | 1.16 | 0.874 |  | 0.789
HCC-78 |  | 0.37 | 0.431 | 0.364 | 0.355 |  |  |  |  |  | 0.592 | 0.491 | 0.587 | 0.537 | 0.66 | 0.702 | 0.821 | 0.992 | 0.561 | 0.485
IA-LM |  |  |  |  |  |  |  |  |  |  | 0.58 | 0.627 | 0.762 | 0.56 | 1.01 | 0.845 | 0.928 | 0.896 | 0.536 | 0.83
NCI-H1703 |  |  |  |  |  |  |  |  |  |  | 1.18 | 0.978 | 0.736 | 0.166 | 1.11 | 0.87 | 1.82 | 0.93 | 0.559 | 1.13
NCI-H441 | 0.78 | 0.922 | 0.599 | 0.54 | 0.504 | 0.346 | 0.333 | 0.41 | 0.302 | 0.361 | 0.498 | 0.528 | 0.461 | 0.459 |  |  |  |  | 0.424 | 
NCI-H522 | 0.782 | 0.724 | 0.804 | 0.564 | 0.751 | 1.18 | 1.14 | 1.1 | 1.12 | 1.17 |  |  |  |  |  |  |  |  |  | 
HCC-366 | 1.02 | 1.09 | 0.926 | 0.595 | 1 |  |  |  |  |  | 0.891 | 0.682 | 0.637 | 0.568 | 1.05 | 1.08 | 1.01 | 1.05 | 0.536 | 1.1
